Measurements published in PubChem BioAssay AID1963440 (Molecular Pharmacology Branch, DTP, NCI, 2024).
pIC50: −log10 of the molar value. One block for each compound: values may come before it.

System: NCI-H1417 complex spheroids, growth % test/control
Experiment: Anticancer human tumor NCI-H1417 cell line growth inhibition [Asc];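 note: spheroids exposed to compounds for 7 days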;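 for viability, T/C: 100% = DMSO vehicle control wells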
Settings: for pIC50: curve of first compound; for viability, T/C: stronger effect = lower value
Method: Multicellular complex tumor spheroid response to apoptosis pathway targeting inhibitors Alrizomadlin, Pelcitoclax, and Dasminapant in combination with a variety of drugs and investigational agents in selected tumor cell lines
The MDM2 inhibitor alrizomadlin, the Bcl-2/Bcl-xL inhibitor pelcitoclax, and the IAPs inhibitor dasminapant were evaluated both individually and in combination with standard of care and investigational anticancer small molecules within a complex spheroid model of solid tumors. . Complex spheroids include a stromal component modeled by human endothelial cells (HUVEC) and fibroblasts modeled by human mesenchymal stem cells (MSCs). The concentration ranges selected for each drug and investigational agent were based upon clinically achievable concentrations if the clinical Cmax of the agent was known.
Compounds. The drugs and investigational agents: alrizomadlin (APG-115; NSC831270), pelcitoclax (APG-1252; NSC835773), dasminapant (APG-1387;NSC834197), TAK-243 (NSC785004), copanlisib (NSC809693), olaparib (NSC753686), talazoparib (NSC767125), cobimetinib (NSC 768068), eltanexor (KPT-8602, NSC 794443), abemaciclib (NSC 768073), sotorasib (NSC818433), adagrasib (NSC 831453), MRTX-1133 (NSC 836407), Iadademestat (ORY1001, NSC 806812), and RMC-4630 (NSC839698), were obtained from the NCI Developmental Therapeutics Program Chemical Repository. The FDA-approved anticancer drug set is available from the Developmental Therapeutics Program at https://dtp.cancer.gov/organization/dscb/obtaining/available plates.htm. […] The stock solutions were prepared in dimethyl sulfoxide (DMSO, Sigma-Aldrich, St. Louis, MO, cat. D2650) at 800-fold the tested concentration and stored at -70 degrees C prior to their use. All drugs and investigational agents were tested over a range starting from a high concentration at or near the clinical Cmax and decreasing in half-log increments. If the clinical Cmax for an agent had not been determined, the highest concentration tested was 10 microM.
The patient-derived cancer (PDC) cell lines include five colon adenocarcinomas: 186277-243-T-J2-PDC, 616215-338-R-J1-PDC, 439559-082-T-J2-PDC, 463943-066-T-J2-PDC, and 519858-162-T-J1-PDC; three pancreatic carcinomas: 323965-272-R-J2-PDC, 521955-158-R6-J3-PDC, and 521955-158-R2-J5-PDC; two uterine sarcomas: 327498-152-R-J2-PDC and 993429-296-R-J1-PDC; two rhabdomyosarcomas: 755483-174-R-J1-PDC and 772245-204-R-J1-PDC; two soft tissue sarcomas: 126254-015-R-J1-PDC and 494315-158-R-J1-PDC; two malignant fibrous histiocytomas: 317291-083-R-J1-PDC and 596521-263-R-J1-PDC; two breast carcinomas: 171881-019-R-J1-PDC and 885512-296-R-J2-PDC; and one ovarian carcinoma: 6556581-035-R-J-PDC were obtained from the NCI PDMR, (https://pdmr.cancer.gov). The established cell lines HSSY-2 synovial sarcoma (RRID:CVCL 8719), SYO-1 synovial sarcoma (RRID:CVCL_7146), MPNST malignant peripheral neural sheath tumor were obtained from the Sloan Kettering Institute. The following established cell lines were purchased from the American Type Culture Collection (ATCC, Manassas, VA), Sor the received from the NCI repository:, PANC-1 pancreatic carcinoma (CRL-1469, RRID:CVCL_0480), OVCAR-5 ovarian carcinoma (RRID:CVCL_1628), OVCAR-8 ovarian carcinoma (RRID:CVCL_1629), , MCF-7 breast carcinoma (CRL-12584, RRID:CVCL_0031), MDA-MB-231 breast carcinoma (CRL-12532, RRID:CVCL_0062), NCI-H1876 small cell lung carcinoma (CRL-5902, RRID:CVCL_1503), NCI-H510A small cell lung carcinoma (HTB-184, RRID:CVCL_1565), NCI-H1417 (CRL-5869, RRID:CVCL_1469), and NCI-H196 small cell lung carcinoma (CRL-5823, RRID:CVCL_1509). Dr. Peter Houghton (Greehey Children's Cancer Research Institute, University of Texas Health Science Center, San Antonio, TX) provided Rh-18 rhabdomyosarcoma (RRID:CVCL_1659). Pooled donor human umbilical vein endothelial cells (HUVEC, Lonza, cat. CC-2519) and human mesenchymal stem cells (hMSC, Lonza, cat. PT-2501) were purchased from Lonza (Walkersville, MD).
Cell Culture. […]

[1] = second compound 0.03 µM, first compound 0.00316 µM
[2] = second compound 0.03 µM, first compound 0.01 µM
[3] = second compound 0.03 µM, first compound 0.0316 µM
[4] = second compound 0.03 µM, first compound 0.1 µM
[5] = second compound 0.0949 µM, first compound 0.00316 µM
[6] = second compound 0.0949 µM, first compound 0.01 µM
[7] = second compound 0.0949 µM, first compound 0.0316 µM
[8] = second compound 0.0949 µM, first compound 0.1 µM
[9] = second compound 0.3 µM, first compound 0.00316 µM
[10] = second compound 0.3 µM, first compound 0.01 µM
[11] = second compound 0.3 µM, first compound 0.0316 µM
[12] = second compound 0.3 µM, first compound 0.1 µM
[13] = second compound 0.949 µM, first compound 0.00316 µM
[14] = second compound 0.949 µM, first compound 0.01 µM
[15] = second compound 0.949 µM, first compound 0.0316 µM
[16] = second compound 0.949 µM, first compound 0.1 µM
[17] = second compound 3 µM, first compound 0.00316 µM
[18] = second compound 3 µM, first compound 0.01 µM
[19] = second compound 3 µM, first compound 0.0316 µM
[20] = second compound 3 µM, first compound 0.1 µM

pIC50 (second compound 0.03 µM): < 6.00
pIC50 (second compound 0.0949 µM): < 6.00
pIC50 (second compound 0.3 µM): < 6.00
pIC50 (second compound 0.949 µM): < 6.00
pIC50 (second compound 3 µM): < 6.00
SMILES: CCN1CCN(Cc2ccc(Nc3ncc(F)c(-c4cc(F)c5nc(C)n(C(C)C)c5c4)n3)nc2)CC1 + CCN1C(C(=O)NC23CCC(C(=O)O)(CC2)CC3)C(c2cccc(Cl)c2F)C2(C(=O)Nc3cc(Cl)ccc32)C12CCCCC2
viability, T/C [1]: 108%
viability, T/C [2]: 110%
viability, T/C [3]: 93.6%
viability, T/C [4]: 93.8%
viability, T/C (second compound 0.03 µM, first compound 0.316 µM): 97.8%
viability, T/C (second compound 0.03 µM, first compound 1 µM): 83%
viability, T/C [5]: 103%
viability, T/C [6]: 104%
viability, T/C [7]: 92.7%
viability, T/C [8]: 98.2%
viability, T/C (second compound 0.0949 µM, first compound 0.316 µM): 94%
viability, T/C (second compound 0.0949 µM, first compound 1 µM): 91.5%
viability, T/C [9]: 103%
viability, T/C [10]: 100%
viability, T/C [11]: 110%
viability, T/C [12]: 102%
viability, T/C (second compound 0.3 µM, first compound 0.316 µM): 95.7%
viability, T/C (second compound 0.3 µM, first compound 1 µM): 81.2%
viability, T/C [13]: 87.2%
viability, T/C [14]: 93.1%
viability, T/C [15]: 88.2%
viability, T/C [16]: 91.1%
viability, T/C (second compound 0.949 µM, first compound 0.316 µM): 88.8%
viability, T/C (second compound 0.949 µM, first compound 1 µM): 78.4%
viability, T/C [17]: 99.5%
viability, T/C [18]: 91.1%
viability, T/C [19]: 98.8%
viability, T/C [20]: 91.4%
viability, T/C (second compound 3 µM, first compound 0.316 µM): 83.8%
viability, T/C (second compound 3 µM, first compound 1 µM): 75.1%

pIC50 (second compound 0.03 µM): 6.89
pIC50 (second compound 0.0949 µM): 6.98
pIC50 (second compound 0.3 µM): 7.00
pIC50 (second compound 0.949 µM): 6.99
pIC50 (second compound 3 µM): 7.23
SMILES: NC(=O)C(=Cn1cnc(-c2cc(C(F)(F)F)cc(C(F)(F)F)c2)n1)c1cncnc1 + CCN1C(C(=O)NC23CCC(C(=O)O)(CC2)CC3)C(c2cccc(Cl)c2F)C2(C(=O)Nc3cc(Cl)ccc32)C12CCCCC2
viability, T/C (second compound 0.03 µM, first compound 0.000949 µM): 95.9%
viability, T/C (second compound 0.03 µM, first compound 0.003 µM): 112%
viability, T/C (second compound 0.03 µM, first compound 0.00949 µM): 93.5%
viability, T/C (second compound 0.03 µM, first compound 0.03 µM): 96%
viability, T/C (second compound 0.03 µM, first compound 0.0949 µM): 59.7%
viability, T/C (second compound 0.03 µM, first compound 0.3 µM): 21.9%
viability, T/C (second compound 0.0949 µM, first compound 0.000949 µM): 96.7%
viability, T/C (second compound 0.0949 µM, first compound 0.003 µM): 101%
viability, T/C (second compound 0.0949 µM, first compound 0.00949 µM): 97.2%
viability, T/C (second compound 0.0949 µM, first compound 0.03 µM): 87%
viability, T/C (second compound 0.0949 µM, first compound 0.0949 µM): 52.9%
viability, T/C (second compound 0.0949 µM, first compound 0.3 µM): 18.9%
viability, T/C (second compound 0.3 µM, first compound 0.000949 µM): 97.7%
viability, T/C (second compound 0.3 µM, first compound 0.003 µM): 97%
viability, T/C (second compound 0.3 µM, first compound 0.00949 µM): 96.2%
viability, T/C (second compound 0.3 µM, first compound 0.03 µM): 87.3%
viability, T/C (second compound 0.3 µM, first compound 0.0949 µM): 51.6%
viability, T/C (second compound 0.3 µM, first compound 0.3 µM): 19.1%
viability, T/C (second compound 0.949 µM, first compound 0.000949 µM): 93.6%
viability, T/C (second compound 0.949 µM, first compound 0.003 µM): 96.3%
viability, T/C (second compound 0.949 µM, first compound 0.00949 µM): 85.1%
viability, T/C (second compound 0.949 µM, first compound 0.03 µM): 73.9%
viability, T/C (second compound 0.949 µM, first compound 0.0949 µM): 52.6%
viability, T/C (second compound 0.949 µM, first compound 0.3 µM): 18.8%
viability, T/C (second compound 3 µM, first compound 0.000949 µM): 97.5%
viability, T/C (second compound 3 µM, first compound 0.003 µM): 98.8%
viability, T/C (second compound 3 µM, first compound 0.00949 µM): 81.3%
viability, T/C (second compound 3 µM, first compound 0.03 µM): 67.9%
viability, T/C (second compound 3 µM, first compound 0.0949 µM): 38.1%
viability, T/C (second compound 3 µM, first compound 0.3 µM): 16.3%

pIC50 (second compound 0.03 µM): < 7.00
pIC50 (second compound 0.0949 µM): < 7.00
pIC50 (second compound 0.3 µM): < 7.00
pIC50 (second compound 0.949 µM): < 7.00
pIC50 (second compound 3 µM): < 7.00
SMILES: NC1CCC(NC2CC2c2ccccc2)CC1 (stereo not given) + CCN1C(C(=O)NC23CCC(C(=O)O)(CC2)CC3)C(c2cccc(Cl)c2F)C2(C(=O)Nc3cc(Cl)ccc32)C12CCCCC2
viability, T/C (second compound 0.03 µM, first compound 0.000316 µM): 86%
viability, T/C (second compound 0.03 µM, first compound 0.001 µM): 73.9%
viability, T/C [1]: 74.5%
viability, T/C [2]: 71.3%
viability, T/C [3]: 78.6%
viability, T/C [4]: 73.1%
viability, T/C (second compound 0.0949 µM, first compound 0.000316 µM): 80.5%
viability, T/C (second compound 0.0949 µM, first compound 0.001 µM): 78.3%
viability, T/C [5]: 63.5%
viability, T/C [6]: 69.8%
viability, T/C [7]: 73.1%
viability, T/C [8]: 66%
viability, T/C (second compound 0.3 µM, first compound 0.000316 µM): 79.7%
viability, T/C (second compound 0.3 µM, first compound 0.001 µM): 64.8%
viability, T/C [9]: 65%
viability, T/C [10]: 61%
viability, T/C [11]: 63.8%
viability, T/C [12]: 62.5%
viability, T/C (second compound 0.949 µM, first compound 0.000316 µM): 78.3%
viability, T/C (second compound 0.949 µM, first compound 0.001 µM): 64.9%
viability, T/C [13]: 67.6%
viability, T/C [14]: 60.7%
viability, T/C [15]: 60.2%
viability, T/C [16]: 61.5%
viability, T/C (second compound 3 µM, first compound 0.000316 µM): 76.9%
viability, T/C (second compound 3 µM, first compound 0.001 µM): 65.9%
viability, T/C [17]: 62.4%
viability, T/C [18]: 59.2%
viability, T/C [19]: 55.3%
viability, T/C [20]: 67.5%
